Values of other authors as cited in PMC7269146, “Jingzhaotoxin-X, a gating modifier of Kv4.2 and Kv4.3 potassium channels purified from the venom of the Chinese tarantula Chilobrachys jingzhao” (The Journal of Venomous Animals and Toxins Including …, 2020).
Entries after “also recorded” stand apart in the source; their conditions may differ. Like-named read-outs stand apart in the source and are kept apart here.

Legend:
Nav1.5 channels = details: cited from earlier work
Source text: (§1) Table 1. Characterization of the main peptides from C. jingzhao venom | column: Main pharmacological activity

Kv2.1 channels = details: cited from earlier work
Source text: (§2) Table 1. Characterization of the main peptides from C. jingzhao venom | column: Main pharmacological activity || The tarantula Chilobrachys jingzhao is one of the largest venomous spiders in the south of China. Peptide toxins purified from spider venom provide crucial approaches to investigating Kv4 channels. […] Jingzhaotoxin-XI ...

Kv channel = details: ref [18]; cited from earlier work
Source text: as §1

Kv4.3 or Kv4.2 = details: ref [14], [19]-[21]; cited from earlier work
Source text: The tarantula Chilobrachys jingzhao is one of the largest venomous spiders in the south of China. Peptide toxins purified from spider venom provide crucial approaches to investigating Kv4 channels. […] Jingzhaotoxin-XI ...

Nav channels = details: cited from earlier work
Source text: as §1

rat cardiac Nav channels = details: ref [10]; cited from earlier work
Source text: as §1

Kv4 channels = details: cited from earlier work
Source text: as §2

Kv2 channels = details: ref [40], [41]; cited from earlier work
calcium channel = details: ref [35]; cited from earlier work
Source text: A total of 6 cysteine residues were highly conserved among each spider toxin at specific locations.

Kv4.1 channels = details: ref [17]; cited from earlier work
Source text: as §2

Jingzhaotoxin-III
Main pharmacological activity, Nav1.5 (Nav1.5 channels; ref [11], [12]): Inhibits Nav1.5 and Kv2.1 channels
Main pharmacological activity, Kv2.1 (Kv2.1 channels; ref [11], [12]): Inhibits Nav1.5 and Kv2.1 channels

Jingzhaotoxin-I
Main pharmacological activity, Nav1.5 (Nav1.5 channels; ref [7]-[9]): Inhibits Nav1.5 channels inactivation and Kv2.1 channels
Main pharmacological activity, Kv2.1 (Kv2.1 channels; ref [7]-[9]): Inhibits Nav1.5 channels inactivation and Kv2.1 channels

Jingzhaotoxin-XI
Main pharmacological activity, Nav1.5 (Nav1.5 channels; ref [15], [16]): Inhibits Nav1.5 inactivation and Kv2.1 channels
Main pharmacological activity, Kv2.1 (Kv2.1 channels; ref [15], [16]): Inhibits Nav1.5 inactivation and Kv2.1 channels

Jingzhaotoxin-XIII
Main pharmacological activity, Kv channel (Kv channel): Modifies Kv channel gating

SNX-482 (GVDKAGCRYMFGGCSVNDDCCPRLGCHSLFSYCAWDLTFSD; UniProt P56854 1-41, looked up)
inhibition of Kv4.3 or Kv4.2 (Kv4.3 or Kv4.2): inhibit either Kv4.3 or Kv4.2, or both of these channels

Jingzhaotoxin-IV
Main pharmacological activity, Nav channels (Nav channels; ref [13]): Modifies the activation and inactivation of Nav channels

Jingzhaotoxin-II
Main pharmacological activity, Nav1.5 (Nav1.5 channels; ref [10]): Inhibits inactivation of both rat cardiac Nav channels and Nav1.5 channels
Main pharmacological activity, rat cardiac Nav channels (rat cardiac Nav channels): Inhibits inactivation of both rat cardiac Nav channels and Nav1.5 channels

Jingzhaotoxin-V
inhibition of Kv4.3 or Kv4.2 (Kv4.3 or Kv4.2): inhibit either Kv4.3 or Kv4.2, or both of these channels
Main pharmacological activity, Nav channels (Nav channels): Inhibits both Nav and Kv4 channels
Main pharmacological activity, Kv4 channels (Kv4 channels): Inhibits both Nav and Kv4 channels

HaTx1: gating-modifying toxin (ECRYLFGGCKTTSDCCKHLGCKFRDKYCAWDFTFS; UniProt P56852 50-84, looked up)
suppression of Kv2 channels (Kv2 channels): suppressing Kv2 channels

ω-grammotoxin SIA
activity on calcium channel (calcium channel): blocker of calcium channel

Jingzhaotoxin-XII
Main pharmacological activity, Kv4.1 (Kv4.1 channels): specific Kv4.1 channel-gating modifier; also recorded: Inhibits Kv4.1 channels
